Results on one compound are retold here after PMC5131364, “Pharmacologic modulation of RORγt translates to efficacy in preclinical and translational models of psoriasis and inflammatory arthritis” (Scientific Reports, 2016).

What all share (assay type): cell-based
Experiment [1] addresses T1, RORβ (Homo sapiens, UniProt Q92753).
T1 construct: NP_008845, aa 201–459; expressed in transfected cells; host or cells: HEK293T
In words: 1-hybrid reporter assay in HEK293T cells (GAL4-RORβ). The following applies: HEK-293T. The method, then: The reporter assay was performed by transient co-transfection of HEK293T cells with pCMV-BD (Stratagene #211342) containing the GAL4 DNA-binding domain fused with full-length human RORγt (Genbank accession no. NP_001001523, aa 1–497), pFR-Luc reporter and pRL-CMV reporter (Promega #E2261) plus Carrier DNA (Clontech # 630440) using PEI solution (Sigma Aldrich cat# 40872-7) in a 96-well plate. […] Medium was removed and cells were lysed with Passive Lysis Buffer (Promega). Firefly luciferase buffer was then added and firefly luciferase luminescence was read on BMG LUMIstar OPTIMA luminescence plate reader. One second later, renilla luciferase buffer was then added and renilla luciferase luminescence was read to measure cell viability. For RORα and RORβ activity, similar assays were performed except cells were transfected with pCMV-BD-RORα (Genbank accession no. NP_599022, aa 305–556) or pCMV-BD-RORβ (Genbank accession no. NP_008845, aa 201–459).
On the technique in general: Reporter assays use an easily measured gene product as a stand-in for the process of interest.

Experiment [2] concerns human CD4+ T cells under Treg polarizing conditions. In words: Human Treg in vitro differentiation. The following applies: 6 days, 1 μM. The method, then: Mouse CD4+ T cell in vitro Th1 differentiation
Total CD4+ T cells were isolated from splenocytes of C57/BL6 mice (Chareles River Labrotory) using a CD4+ T cell isolation kit (Miltenyl Biotec, Auburn, CA), following the manufacturer’s instructions. Cells were resuspended in culture medium (described in Method section of Th17 differentiation) and were added to 96‐well plates at 2x10^5 per well. Titrated JNJ‐54271074 was added to each well at final DMSO concentration of 0.2%. Cells were incubated for 1 hour, after which Th1 cell differentiation medium was added with final concentrations of 1 µg/ml anti‐CD3, 5 µg/mL anti‐CD28 (BD Pharmingen, San Diego, CA), 10 µg/ml anti‐IL4, 10 ng/mL IL‐12, (R&D Systems, Minneapolis, MN). Cells were cultured at 37 °C and 5% CO2 for 3 days. Supernatants were collected and the accumulated cytokines in culture were measured by ELISA kits (R&D Systems, Minneapolis, MN) following manufacturers' instructions.
IL‐23 induced IL‐17A and IL‐22 production in mouse splenocytes splenocytes were isolated from C57/BL6 mice and resuspended in medium and cultured in 96‐well plates at […] per 100 µL per well. […] Supernatants were collected and the accumulated cytokines in culture were measured by ELISA according to the manufacturer’s instructions (IL‐17A kit from R&D systems, and IL‐22 from Biolegend San Diego). […]

The subject of experiment [3] is CLA+ memory T cells / autologous epidermal cells from guttate psoriasis patients. As to the kind of experiment: Co-culture of human psoriatic CLA+ memory T cells with epidermal cells, streptococcal extract. The source says:
The study protocol was reviewed and subsequently approved by the Medical Ethics Committee of the Hospitals where the biopsies and blood were procured. All psoriasis donors in this study were required to be without disease-specific systemic therapy for at least 4 weeks or topical treatment for at least 2 weeks before the clinical samples were obtained. Circulating CLA^+/CLA^− CD45RO^+ CD3^+ cells and lesional epidermal cells were obtained from the same guttate psoriasis patient following the procedure described previously. In brief, memory T cell populations were isolated and enriched from peripheral blood lymphocytes by immunomagnetic separations. Epidermal cell suspensions were obtained from lesional biopsies by a dispase/trypsin treatment. The culture system was performed by seeding 50,000 circulating CLA^+ or CLA^− memory T cells with 30,000 autologous epidermal cells in a 96-flat bottom microwell plate (Nunc, Roskilde, Denmark) with culture medium (RPMI with 10% fetal calf serum). […] Cytokines in supernatants were quantified by multiplex fluorescent bead-based immunoassay, Diaclone DIAplex kit (Gen-Probe, Besançon, France), and data were collected with a F500 Flow Cytometer (Beckman Coulter, Fullerton, CA).

[4] abbreviates: 1 μM, SE-stimulated CLA+/epidermal cell co-culture, not statistically significant.

T1 sequence (Q92753 212-470): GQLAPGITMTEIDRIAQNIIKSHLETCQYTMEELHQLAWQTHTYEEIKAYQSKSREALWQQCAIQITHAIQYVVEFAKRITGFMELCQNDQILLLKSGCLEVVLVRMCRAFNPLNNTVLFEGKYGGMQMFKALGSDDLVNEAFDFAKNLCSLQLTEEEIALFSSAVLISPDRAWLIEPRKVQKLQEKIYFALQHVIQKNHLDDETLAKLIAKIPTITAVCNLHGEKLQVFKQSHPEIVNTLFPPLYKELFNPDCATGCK

Regarding `COc1nc2ccc([C@@](O)(c3ccc(C)nc3C)c3cnnn3C)cc2c(Cl)c1Cc1ccc(C(F)(F)F)cc1` [JNJ-54271074], the IC50 in experiment [1] was > 10 µM. In experiment [2], the “mRNA expression of FOXP3” value was “slightly increased” and the “percentage of FOXP3+ T cell” value is on record as “no impact”. Further, in experiment [3] (1 μM, SE-stimulated CLA+/epidermal cell co-culture), the “TNFα and IL-8 production” value is listed as “no effect”. For the same compound, in experiment [3] (setting [4]), the “increase of IFNγ production” value is recorded as 64%, the “reduction of IL-6” value is 32% and the “reduction of IL-17F production” value is on record as 40%. The “decrease of IL-17A production” value in experiment [3] (1 μM, SE-stimulated CLA+/epidermal cell co-culture, vs DMSO, significant) is reported as 78%. Moreover, the “IL-17A production in human cell co-culture model” value in experiment [3] (discussion, in words) is on record as “significant inhibition”.

A word on the IC50: it is the concentration at which inhibition is half-maximal. A low value points to higher potency.
